Data on four compounds can be found in PMC7997579, “Synthetic Lethality in Pancreatic Cancer: Discovery of a New RAD51-BRCA2 Small Molecule Disruptor That Inhibits Homologous Recombination and Synergizes with Olaparib” (Journal of Medicinal Chemistry, 2020).

SMILES strings stand for the structures. Where two headings read alike, the source gives them in different places.

The test system of data set [1] is homologous recombination in BxPC3 cells. Also on record: method as in PMID 30660828. To be noted: earlier triazole; cited from earlier work.
The nature of data set [2]: Solubility (as observed in cell culture media / stated). The class given is physicochemical. To be noted: cell culture media.
The target of data set [3] is T1, BRC4–RAD51 interaction (Homo sapiens, UniProt Q06609).
T1 construct: purchased Creative Biomart (RAD51); Life Technologies (BRC4 peptide)
T1 sequence (Q06609 1-339): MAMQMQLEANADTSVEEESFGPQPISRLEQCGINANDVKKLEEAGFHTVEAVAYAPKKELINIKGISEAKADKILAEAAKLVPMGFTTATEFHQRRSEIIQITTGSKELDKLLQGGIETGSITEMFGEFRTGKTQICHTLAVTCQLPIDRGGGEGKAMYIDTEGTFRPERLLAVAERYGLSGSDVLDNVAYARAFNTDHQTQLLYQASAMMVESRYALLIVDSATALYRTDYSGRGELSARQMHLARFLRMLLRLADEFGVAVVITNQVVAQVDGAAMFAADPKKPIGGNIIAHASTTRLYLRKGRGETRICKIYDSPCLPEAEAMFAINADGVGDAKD
Briefly: Competitive biochemical ELISA assay (biotinylated BRC4 peptide vs RAD51). In kind it is binding. How it is done:
To investigate the mechanism of action of the new dihydroquinolone pyrazoline derivatives, different biological assays were performed. As a primary screening, the ability of compounds 5d–57d to inhibit RAD51-BRCA2 interaction was investigated with a competitive biochemical ELISA assay against the parent compound 4d (Table 1). This assay is effective in evaluating the ability of new molecules to compete with BRC4 to bind to RAD51.[30] […] 18d–21d, 23d, 25d, 30d, and 31d were active at micromolar range, all very similar to the initial hit. […] The replacement of the aromatic ring A in combination with the substitution of the pyrazoline nitrogen with either propionyl or acetyl chain yielded compounds 33d–51d. […] As expected for PPI disruptors, the SARs of the new series of dihydroquinolone pyrazoline were rather complex to rationalize, with many cliffs and spikes that were difficult to understand. […] Accordingly, 4d, 12d, 18d, 20d–23d, 30d, 31d, 33d–36d, 39d, 45d, and 49d were submitted to cell-based study (Table 2).
Competitive ELISA screening assay using biotinylated BRC4 peptide to disrupt the BRC4–RAD51 interaction was performed by modifying the method described by Rajendra et al.[33] BRC4-biotinylated peptide (N-term biotin-[…] from Life Technologies) was used to coat 384-well plates (Nunc). After washing with PBS containing 0.05% Tween-20 (PBST) and blocking with the solution BSA 1% /PBST, overnight hybridization with human RAD51 protein (NP_002866 Creative Biomart, NY) was performed. Test compounds were added in dose response from 0.01 to 100 μM in triplicate with constant DMSO 1%. Antibody raised against RAD51 (Millipore) and HRP-secondary antibody staining to develop the 3,3′,5,5′-tetramethylbenzidine signal (Sigma) quenched with 1 M HCl was used as the assay readout. Colorimetric measure was read on a Victor5 (PerkinElmer) plate reader. BRC4 and Rad51 were included in the assay as positive control. Results were analyzed by using GraphPad software.
A general note: In an ELISA, binding on a coated surface is turned into a signal by an enzyme label.

Data set [4] has as its system homologous recombination in BxPC3 cells. The data set can be described thus: Homologous recombination assay (two-plasmid recombination, real-time PCR). The class given is cell-based, human. Conditions: BxPC3; one or two doses in the range of the ELISA EC50; NDD = not dose-dependent. An excerpt: Our working hypothesis is that compounds disrupting RAD51-BRCA2 interaction should affect HR repair and increase the efficacy of PARPi in treating breast, ovarian, and pancreatic cancer. For its clinical relevance, pancreatic adenocarcinoma was selected as our final model for cell-based experiments, and BxPC3 cells were selected for a straightforward comparison with the previously reported triazole derivatives.[30],[31] BxPC3 is derived from a human adenocarcinoma that expresses fully functional BRCA2.[38] As shown in Table 2 and according to the rationale of our hypothesis, our preliminary screening consisted of verifying the efficacy of compounds in inhibiting cell HR and/or in increasing the antiproliferative effect of olaparib. […] HR activity was assessed by evaluating the recombination rate between two transfected plasmids, using a commercially available assay. […] As for the emissucinic acid-containing compounds (4d, 12d, 18d, 20d–23d, 30d, 31d), one of the reasons for their lower potency in cells might be the general poor permeability, likely related to the ionizable acid moiety. […] We then characterized 35d in additional biophysical and cell-based experiments.
Homologous recombination (HR) was assessed by using a commercially available assay (Norgen). This assay is based on cell transfection with two plasmids that, upon cell entry, recombine. The efficiency of HR can be assessed by real-time PCR, using primer mixtures included in the assay kit. Different primer mixtures allow one to discriminate between the original plasmid backbones and their recombination product.
BxPC3 cells (2 × 10^5 per well) were seeded in a 24-well plate and allowed to adhere overnight. Co-transfection with the two plasmids was performed in Lipofectamine 2000 (Invitrogen) according to the manufacturer’s instructions. During transfection (5 h), cells were exposed to different doses of RAD51-BRCA2 disruptors, dissolved in RPMI in the presence of 0.6% DMSO. After washing with PBS, cells were harvested, and DNA was isolated using Illustra Tissue and Cell Genomic Prep Mini Spin kit (GE Healthcare). Sample concentration was measured using an ONDA Nano Genius photometer. The efficiency of HR was assessed by real-time PCR, using 25 ng of template, the primer mixtures included in the assay kit and following the protocol indicated by the manufacturer. Data analysis was based on the ΔΔCt method: [recombination product/backbone plasmids]^treated versus [recombination product/backbone plasmids]^control.
(In qPCR the cycle at which signal appears reflects the starting amount.)

In data set [5] the test system is Capan-1 cells. The data set can be described thus: Immunofluorescence of nuclear γ-H2AX foci (DNA damage). The class given is cell-based, human. Conditions: Capan-1, 48 h, 10 μM olaparib alone. The protocol: To evaluate DNA damage through γH2AX nuclear foci, BXPC3 and Capan1 cells were seeded on glass coverslips in 6-well tissue culture plate (2 × 10^5 cells/well) and allowed to adhere overnight. After 48 h treatment with olaparib (10 μM) or 35d (20 μM) given alone or in combination, cultures growing on coverslips were fixed and treated as described above. For this experiment, the used antibodies were a rabbit polyclonal anti-γH2AX (Abcam, 1:1000 in 5% BSA/PBS) and a secondary anti-rabbit rhodamine-labeled (Novus Biologicals, 1:1000 in 1% BSA/PBS). For both experiments, images were acquired using a Nikon fluorescent microscope equipped with filters for FITC, TRITC, and DAPI. The percentage of cells bearing nuclear foci was estimated by two independent observers, by analyzing 100–250 cells for each treatment sample.

Setting [6] is: Table 2, compounds selected for cell-based study, read-out: EC50 ELISA.
[7] abbreviates: competition with BRC4 for RAD51, triplicate, ± standard deviation, NA = not active, racemic mixtures unless enantiomer named, read-out: EC50 (μM) on ELISA assay.

`O=C(CSc1nnc(Cn2c(=O)sc3ccccc32)n1CCCc1ccccc1)NC1CCCCC1` [Compound 3]: the HR inhibition in data set [1] is reported as at most 40%.

Usually EC50 stands for the midpoint of the concentration-response curve. Regarding `CCn1ncc2cc(-c3ccc(C4CC(c5c(-c6ccccc6)c6cc(Cl)ccc6[nH]c5=O)=NN4C(=O)CCC(=O)O)cc3)ccc21` (stereo not drawn) [Compound 30d, 4-(3-(6-Chloro-2-oxo-4-phenyl-1,2-dihydroquinolin-3-yl)-5-(4-(1-ethyl-1H-indazol-5-yl)phenyl)-4,5-dihydro-1H-pyrazol-1-yl)-4-oxobutanoic Acid], the “solubility in cell culture media” value in data set [2] was “poor solubility”. For the same compound, the EC50 in data set [3] (setting [6]) and in data set [3] (setting [7]) was 15 ± 3 µM throughout.

As to `CCC(=O)N1N=C(c2c(-c3ccccc3)c3cc(Cl)ccc3[nH]c2=O)CC1c1ccc(Br)cc1` (stereo not drawn) [Compound 34d, 3-(5-(4-Bromophenyl)-1-propionyl-4,5-dihydro-1H-pyrazol-3-yl)-6-chloro-4-phenylquinolin-2(1H)-one], the “HR inhibition (in words)” value in data set [4] was “HR inhibition = not present”. Further, in data set [2], the “solubility in cell culture media” value is “poor solubility”. The EC50 in data set [3] (setting [6]) and in data set [3] (setting [7]) was 19 ± 1 µM throughout.

As for `O=C(c1cc(Cc2n[nH]c(=O)c3ccccc23)ccc1F)N1CCN(C(=O)C2CC2)CC1` [olaparib], the “γ-H2AX labeling in nuclei” value in data set [5] is recorded as “increased nuclear labeling”.
